Data set [1] in a line: In vivo PK study, single subcutaneous dose in CD2F1 mice. To be noted: male, CD2F1, mouse, sc, 200 mg/kg.
The next data set relates to G-CSF production. In words: In vivo G-CSF stimulation assay. Also on record: species or system mouse. The following applies: CD2F1 mice, 200 mg/Kg subcutaneously; for G-CSF production in mice after treatment: plasma G-CSF 8-48 h.
Data set [2] is classed as in vitro ADME. The following applies: mouse liver microsomes, without NADPH (data not shown). For orientation: Microsomes from liver hold many membrane-bound enzymes, among them those of drug oxidation.

Experimental findings from paper PMC7433030 (Bioorganic & medicinal chemistry, 2020) are described below.

The Tmax is the time from dosing to the highest level.

On to `CC(C)=CCC/C(C)=C/CC/C(C)=C/CC[C@]1(C)CCc2cc(O)cc(C)c2O1` [DT3, δ-tocotrienol], for which, in data set [1], the Tmax was about 1 h and the Tmax at 24 h was 1 h. In addition, in the data set with G-CSF production, the “lag time before plasma G-CSF increase” value is given as “about 6 h”, the “time of peak plasma G-CSF concentration” value came to 24 h and the “G-CSF production in mice after treatment” value was “significant G-CSF production”. In data set [2], the “degradation in the absence of NADPH” value is recorded as “no degradation was observed”.
In the case of `[2H]C([2H])([2H])C(=CCC/C(C)=C/CC/C(C)=C/CC[C@]1(C)CCc2cc(O)cc(C)c2O1)C([2H])([2H])[2H]` [d6-DT3, (R)-2-((3E,7E)-4,8-dimethyl-12-(methyl-d3)trideca-3,7,11-trien-1-yl-13,13,13-d3)-2,8-dimethylchroman-6-ol], in the data set on G-CSF production, the “lag time before plasma G-CSF increase” value is recorded as “about 6 h”, the “time of peak plasma G-CSF concentration” value was 24 h and the “G-CSF production in mice after treatment” value is “significant G-CSF production”. For the same compound, in data set [2], the “degradation in the absence of NADPH” value is recorded as “no degradation was observed”.
